Experimental data: patent US20140079741A1, “INHIBITION AND TREATMENT OF BIOFILMS” (priority 2011, published 2014)

How the values were obtained:
Assay type in all cases: cell-based, Candida albicans
C. albicans WT biofilms = assay: Biofilm survival by CFU determination (plating on YPD); conditions: WT biofilms grown with 500 μg/ml diclofenac, AmB 2.5-10 μg/ml, 24 h
Protocol: Using the same setup as in Example 2, WT biofilms grown in the presence or absence of diclofenac (500 μg/ml) or Δefg1 biofilms were incubated with various concentrations of Amphotericin B (AmB) (2.5-10 μg/ml) for 24 h, both in the presence or absence of diclofenac. After washing, the remaining living cells within the biofilm were determined by plating on YPD and determination of colony forming units (CFUs).

[1] = system: C. albicans biofilm cells; assay: Intracellular accumulation of miconazole in biofilm cells (quantitative HPLC)
Protocol: Quantitative analysis of intracellular accumulation of miconazole in C. albicans biofilm cells. […] After incubation, treated biofilms were resuspended and pooled per 5 wells. After centrifugation, samples were taken for cell counting using a Thoma counting chamber, whereafter the pellet was resuspended in 300 μl 70% acetonitrile/30% PBS. Miconazole concentration in the cell lysates was determined using HPLC and normalized to the number of cells in the pellet. Statistical analysis was performed using unpaired student t test; differences were considered significant if p<0.05.
The intracellular accumulation of miconazole in Δefg1 and WT biofilms upon miconazole treatment was determined to investigate whether the increased miconazole sensitivity of Δefg1 biofilms is due to an increased uptake or decreased efflux of miconazole. To this end, 16 h-old Δefg1 and WT C. albicans biofilms were treated with different concentrations of miconazole for 4 h and the concentration of miconazole in the biofilm cells via HPLC analysis was determined.
The intracellular accumulation of miconazole in WT biofilms grown in the prescence or absence of 500 μg/ml diclofenac upon miconazole treatment was determined to investigate whether the increased miconazole sensitivity of diclofenac-treated WT biofilms is due to an increased uptake or decreased efflux of miconazole. […]

[2] = system: C. albicans biofilms of wild type CAF2; assay: Biofilm activity assay, crystal violet quantification (BEC50)
Protocol: (§1) Biofilm activity assay. The activity of miconazole and fluconazole against 16 h-old C. albicans biofilms (10^7 cells/well) was assessed using the crystal violet quantification method. The biofilm-eradicating capacity of a compound was determined as the minimal concentration resulting in 50% eradication of the biofilm (BEC50).
(§2) Miconazole sensitivity was analyzed of biofilms of C. albicans homozygous null mutants affected in genes involved in the cyclic AMP signaling pathway, namely Δcdc35, Δras1, Δpde1, Δpde2 and Δefg1. To this end, the inventors incubated 16 h-old C. albicans biofilms with various concentrations of miconazole for 24 h and determined the remaining biomass using the crystal violet quantification method.
To this end, cultures of the WT CAF2-1 were grown overnight (2×10^8 cells/ml) in YPD (1% yeast extract, 2% peptone, 2% glucose) and washed 3 times in PBS (pH 7.4). After dilution (OD600=0.5) in SC (1% CSM, complete amino acid supplement mixture, 1% YNB, yeast nitrogen base; 2% glucose), the cultures were resuspended (100 μl/well) in a 96well microtiter plate. After 1 h of adhesion, the adherent WT cells were incubated with or without 500 μg/ml diclofenac and allowed biofilm formation for 16 h. Next, the resulting biofilms were washed with PBS and treated with various concentrations of miconazole for 24 h in the absence or presence of diclofenac. After washing, the remaining biomass was determined using the crystal violet quantification method.
The biofilm-eradicating capacity of a compound was determined as the minimal concentration resulting in 50% eradication of the biofilm (BEC50).

[3] = system: C. albicans WT CAF2-1 biofilms; assay: Biofilm cell viability by CellTiter-Blue staining; conditions: biofilms treated with 2 mM diclofenac, miconazole 0-500 μM, 24 h
Protocol: To this end, cultures of the WT CAF2-1 were grown overnight (2*10^8 cells/ml) in YPD (1% yeast extract, 2% peptone, 2% glucose) and washed 3 times in PBS (pH 7.4). After dilution (OD600=0.5) in SC (1% CSM, complete amino acid supplement mixture, 1% YNB, yeast nitrogen base; 2% glucose), the cultures were resuspended (100 μl/well) in a 96well microtiter plate. After 1 h of adhesion, the adherent WT cells were incubated with or without 2 mM (about 500 μg/ml) diclofenac (in DMSO, resulting in final concentration of 2.4% DMSO) and allowed biofilm growth for 16 h in SC. Next, the resulting biofilms were washed with PBS and treated with various concentrations of miconazole (0-500 μM) for 24 h in the absence or presence of diclofenac. After washing, the remaining living cells using the CellTiter-Blue quantification method were determined.
Using the same setup as above, WT biofilms grown in the presence or absence of diclofenac (0.5-3 mM or 148-888 μg/mL) were incubated with various concentrations of Caspofungin (0-150 μM) for 24 h, both in the presence or absence of diclofenac. After washing, the remaining living cells within the biofilm was determined by CellTiter-Blue quantification. The MIC50 of caspofungin, diclofenac and the combination of both drugs against pretreated or mature C. albicans biofilms was quantified by XTT reduction assay (Ramage et al.).

[4] = system: C. albicans reintegrant Δefg1(EFG1) biofilms; assay: Biofilm activity assay, crystal violet quantification (BEC50); conditions: for sensitivity of biofilms to miconazole: Δefg1(EFG1)
Protocol: as §1, §2

[5] = system: C. albicans Δefg1 biofilms; assay: as above
Protocol: as §1, §2

Row | Compound | drop of % survival compared to diclofenac-untreated biofilms (C. albicans WT biofilms) | intracellular miconazole levels in diclofenac-treated compared to untreated WT biofilm cells ([1]; 62-250 μg/ml miconazole and 500 μg/ml diclofenac) | intracellular miconazole levels in Δefg1 biofilm cells compared to WT biofilm cells ([1]; 62-250 μg/ml miconazole, 4 h) | BEC50 (minimal concentration resulting in 50% eradication of the biofilm) ([2]; WT CAF2, 16 h-old biofilms, 24 h treatment, no diclofenac) [µg/mL] | BEC50 ([2]; WT biofilms grown and treated in presence of 500 μg/ml diclofenac) [µg/mL] | sensitivity of biofilms to miconazole ([2]; WT, high miconazole dose 250 μg/ml) | sensitivity to miconazole compared to untreated WT biofilms [3] | BEC50 ([4]; reintegrant Δefg1(EFG1), 16 h-old biofilms, 24 h treatment) [µg/mL] | sensitivity of biofilms to miconazole ([4]; high miconazole dose 250 μg/ml) | sensitivity of biofilms to miconazole ([4]; moderate miconazole doses 62-125 μg/ml) | BEC50 ([5]; Δefg1, 16 h-old biofilms, 24 h treatment) [µg/mL] | sensitivity of biofilms to miconazole ([5]; Δefg1, low miconazole dose 31 μg/ml)
1 | C[C@@H]1[C@H](O)[C@@H](C)/C=C/C=C/C=C/C=C/C=C/C=C/C=C/[C@H](O[C@@H]2O[C@H](C)[C@@H](O)[C@H](N)[C@@H]2O)C[C@@H]2O[C@](O)(C[C@@H](O)C[C@@H](O)[C@H](O)CC[C@@H](O)C[C@@H](O)CC(=O)O[C@H]1C)C[C@H](O)[C@H]2C(=O)O [Amphotericin B] | about 5 fold |  |  |  |  |  |  |  |  |  |  | 
2 | Clc1ccc(COC(Cn2ccnc2)c2ccc(Cl)cc2Cl)c(Cl)c1 (stereo not drawn) [miconazole] |  | significantly increased | significantly increased | > 250 | 46 | resistant | increased sensitivity | 100 | as sensitive to miconazole as Δefg1 biofilms | intermediate miconazole sensitivity phenotype | 25 | sensitive
